Columns and labels:
[1] = In Vitro Intrinsic Clearance; assay type: in vitro ADME; conditions: human liver microsomes, 1 μM compound, NADPH, scaled to human
Protocol: For in vitro metabolic stability experiments, test compounds were incubated with human liver microsomes at 37° C. The incubation mixture contained test compounds (1 μM), NADPH (2 mM), and human liver microsomes ([…]) in 100 mM phosphate buffer (pH 7.4). The mixture was pre-incubated for 2 min at 37° C. before the addition of NADPH. Reactions were commenced upon the addition of NADPH and quenched with ice-cold methanol at 0, 10, 20, and 30 min. Terminated incubation mixtures were analyzed using LC-MS/MS system. The analytical system consisted of a Shimadzu LC-30AD binary pump system and SIL-30AC autosampler (Shimadzu Scientific Instruments, Columbia, MD) coupled with a Sciex Triple Quad 6500+mass spectrometer from Applied Biosystems (Foster City, CA). […] Mobile phase A consisted of 0.1% formic acid in water, and mobile phase B consisted of 0.1% formic acid in acetonirile. The total LC-MS/MS runtime was 2.75 minutes with a flow rate of 0.75 mL/min. Peak area integrations and peak area ratio calculations were performed using Analyst software (version 1.6.3) from Applied Biosystems.
The in vitro intrinsic clearance, CLint, in vitro, was calculated from the t1/2 of test compound disappearance as CLint, in vitro=(0.693/t1/2)×(1/Cprotein), where Cprotein is the protein concentration during the incubation, and t1/2 was determined by the slope (k) of the log-linear regression analysis of the concentration versus time profiles; thus, t1/2ln2/k. The CLint, in vitro values were scaled to the in vivo values for human by using physiologically based scaling factors, hepatic microsomal protein concentrations (45 mg protein/g liver), and liver weights (21 g/kg body weight). The equation CLint=CLint, in vitro×(mg protein/g liver weight)×(g liver weight/kg body weight) was used. The in vivo hepatic clearance (CLH) was then calculated by using CLint and hepatic blood flow, Q (20 mL·min^−1kg^−1 in humans) in the well-stirred liver model disregarding all binding from CLH (Q×CLint)/(Q+CLint). The hepatic extraction ratio was calculated as CLH divided by Q.

KIT [2] = assay: KIT Enzymatic Assay; assay type: biochemical; conditions: ratio KIT IC50 / JH2 V617F binding IC50
Protocol: (§1) The kinase assays were carried out at room temperature in assay buffer (HEPES 50 mM, pH 7.0, NaN3 0.02%, BSA 0.01%, Orthovanadate 0.1 mM, DTT 1 mM, MgCl2 10 mM) in a final volume of 10 μL. Testing compounds were prepared by serial dilution in DMSO and transferred to the plate wells by ECHO liquid handler (Labcyte) with 0.5% DMSO in the final assay. […]. Reactions were initiated by the addition of 5 μL ATP in assay buffer. The final 10 μL kinase reaction consists of 0.12 nM KIT, 1 mM ATP, 500 nM TK Substrate-biotin and SEB reagent 62.5 nM in assay buffer. […] The plates were then sealed and centrifuged at 1800 rpm for 2 minutes. After 60 minutes incubation at room temperature, the product activity was determined by measuring the fluorescence at 620 nm and 665 nm on Pherastar microplate reader (BMG Labtech). A ratio is calculated (665/620 nm) for each well. Wells with DMSO only were served as the positive controls and wells containing no ATP were used as negative controls. IC50 determination was performed by fitting the curve of percent control activity versus the log of the compound concentration using the GraphPad Prism 7.0 software.

FLT3 [3] = assay: FLT3 Enzymatic Assay; assay type: biochemical; conditions: ratio FLT3 IC50 / JH2 V617F binding IC50
Protocol: as §1, with “0.011” for “0.12”, “FLT3,” for “KIT,”

FLT3 [4] = target: T1, FLT3 (Homo sapiens, UniProt P36888); assay: FLT3 Enzymatic Assay; assay type: biochemical; conditions: HTRF kinase assay, 1 mM ATP
T1 sequence (P36888 27-993): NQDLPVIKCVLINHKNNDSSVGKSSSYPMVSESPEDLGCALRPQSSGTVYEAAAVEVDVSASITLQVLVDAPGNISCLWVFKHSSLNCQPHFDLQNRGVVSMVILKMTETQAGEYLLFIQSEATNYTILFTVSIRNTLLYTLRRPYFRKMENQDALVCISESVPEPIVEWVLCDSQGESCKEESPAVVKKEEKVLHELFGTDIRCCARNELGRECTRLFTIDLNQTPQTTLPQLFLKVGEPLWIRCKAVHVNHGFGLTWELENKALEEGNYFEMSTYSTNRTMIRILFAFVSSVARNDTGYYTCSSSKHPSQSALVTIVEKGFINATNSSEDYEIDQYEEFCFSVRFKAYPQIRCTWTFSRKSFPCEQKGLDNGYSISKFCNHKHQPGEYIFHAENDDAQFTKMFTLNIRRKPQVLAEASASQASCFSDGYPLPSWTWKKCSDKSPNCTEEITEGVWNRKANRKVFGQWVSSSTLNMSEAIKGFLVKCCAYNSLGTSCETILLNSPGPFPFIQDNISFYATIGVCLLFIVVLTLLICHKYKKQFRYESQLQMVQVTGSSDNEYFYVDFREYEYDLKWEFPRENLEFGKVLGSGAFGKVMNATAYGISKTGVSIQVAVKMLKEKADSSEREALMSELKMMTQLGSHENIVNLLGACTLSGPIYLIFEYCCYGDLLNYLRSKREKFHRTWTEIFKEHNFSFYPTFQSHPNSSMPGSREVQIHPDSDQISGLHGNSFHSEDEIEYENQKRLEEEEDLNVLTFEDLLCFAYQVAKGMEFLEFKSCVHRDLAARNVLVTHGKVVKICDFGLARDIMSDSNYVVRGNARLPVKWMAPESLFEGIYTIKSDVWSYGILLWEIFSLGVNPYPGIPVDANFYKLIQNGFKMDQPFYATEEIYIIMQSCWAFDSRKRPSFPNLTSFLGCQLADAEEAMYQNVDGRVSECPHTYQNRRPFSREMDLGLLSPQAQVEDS
Protocol: as §1, with “0.011” for “0.12”, “FLT3,” for “KIT,”

KIT [5] = target: KIT (Homo sapiens, UniProt P10721); assay: KIT Enzymatic Assay; assay type: biochemical; conditions: HTRF kinase assay, 1 mM ATP
Protocol: as §1

Chain of KIT (Homo sapiens, UniProt P10721) (P10721 26-976, species assumed): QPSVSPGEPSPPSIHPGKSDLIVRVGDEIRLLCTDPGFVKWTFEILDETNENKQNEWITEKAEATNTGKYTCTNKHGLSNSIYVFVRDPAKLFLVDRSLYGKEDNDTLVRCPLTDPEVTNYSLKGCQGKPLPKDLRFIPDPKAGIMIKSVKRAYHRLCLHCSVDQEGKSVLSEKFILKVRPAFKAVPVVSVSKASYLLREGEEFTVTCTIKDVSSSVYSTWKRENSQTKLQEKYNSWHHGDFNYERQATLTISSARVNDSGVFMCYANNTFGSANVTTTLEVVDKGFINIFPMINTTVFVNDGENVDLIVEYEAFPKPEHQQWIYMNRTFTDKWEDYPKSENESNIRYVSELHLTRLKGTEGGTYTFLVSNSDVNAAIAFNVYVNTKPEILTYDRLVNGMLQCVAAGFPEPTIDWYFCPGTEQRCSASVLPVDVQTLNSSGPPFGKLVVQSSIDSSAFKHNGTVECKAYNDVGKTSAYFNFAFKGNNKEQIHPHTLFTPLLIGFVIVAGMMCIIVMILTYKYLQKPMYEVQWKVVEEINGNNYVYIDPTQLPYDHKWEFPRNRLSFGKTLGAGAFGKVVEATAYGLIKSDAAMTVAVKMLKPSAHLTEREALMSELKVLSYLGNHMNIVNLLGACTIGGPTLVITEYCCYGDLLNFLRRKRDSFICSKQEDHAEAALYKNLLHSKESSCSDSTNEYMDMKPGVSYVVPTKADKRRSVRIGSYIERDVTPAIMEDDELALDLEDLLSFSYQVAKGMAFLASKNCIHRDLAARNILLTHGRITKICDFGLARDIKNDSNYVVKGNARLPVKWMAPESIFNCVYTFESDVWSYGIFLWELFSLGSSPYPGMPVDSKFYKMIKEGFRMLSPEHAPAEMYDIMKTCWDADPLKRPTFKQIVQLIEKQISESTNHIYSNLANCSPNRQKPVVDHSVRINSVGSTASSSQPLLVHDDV

Row | Structure (SMILES) | IC50 (FLT3 [4]) [nM] | IC50 (KIT [5]) [nM] | h-IntCL [1] | Selectivity KIT/JH2 V617F (KIT [2]) | Selectivity FLT3/JH2 V617F (FLT3 [3])
1 | COc1ccc(-c2c(-c3cnn(Cc4ccncc4)c3)[nH]c3ncc4c(c23)n(C2CCCC2)c(=O)n4C)cc1 [Comparative Example D, reference compound] |  |  | ‡ ‡ ‡ (‡ ‡ ‡ refers to h-IntCL of >1 L/h/kg) |  | 
2 | COc1nn(C)cc1-c1[nH]c2ncc3c(c2c1-c1ccc2c(cnn2C)c1)n([C@H]1CC[C@@H](CC#N)CC1)c(=O)n3C [Comparative Example E, reference compound] |  |  | ‡ ‡ ‡ (‡ ‡ ‡ refers to h-IntCL of >1 L/h/kg) | *** (*** refers to selectivity of >1500-fold to ≤1750-fold) | * (* refers to selectivity of ≤500-fold)

Now from value to compound, other results behind:

Row | IC50 (FLT3 [4]) [nM] | IC50 (KIT [5]) [nM] | Structure (SMILES) | h-IntCL [1] | Selectivity KIT/JH2 V617F (KIT [2]) | Selectivity FLT3/JH2 V617F (FLT3 [3])
3 | 250 to 1250 |  | COc1nn(C)cc1-c1[nH]c2ncc3c(c2c1-c1ccc2c(cnn2C)c1)n(C1CCOCC1)c(=O)n3C [Comparative Example A, reference compound] | ‡ ‡ ‡ (‡ ‡ ‡ refers to h-IntCL of >1 L/h/kg) | * (* refers to selectivity of ≤500-fold) | * (* refers to selectivity of ≤500-fold)
4 | 250 to 1250 | 1250 to 2500 | [2H]C([2H])([2H])n1ncc2cc(-c3c(-c4cn(C)nc4OC)[nH]c4ncc5c(c34)n(C3CCOCC3)c(=O)n5C)ccc21 [Comparative Example B, reference compound] | ‡ ‡ (‡ ‡ refers to h-IntCL of ≥0.7 L/h/kg to ≤1 L/h/kg) | ** (** refers to selectivity of >500-fold to ≤1500-fold) | * (* refers to selectivity of ≤500-fold)
5 | ≤ 25 | 25 to 250 | Cn1cc(-c2[nH]c3ncc4c(c3c2-c2ccc3c(cnn3C)c2)n([C@H]2CC[C@@H](CC#N)CC2)c(=O)n4C)cn1 [Comparative Example C, reference compound] | ‡ ‡ ‡ (‡ ‡ ‡ refers to h-IntCL of >1 L/h/kg) | * (* refers to selectivity of ≤500-fold) | * (* refers to selectivity of ≤500-fold)
